# Data taken from patent US9766241B2, “PGC-1beta-protein-function regulator, mitochondria-function regulator, anti-obesity agent, and screening method therefor” (priority 2012, dated 2017).
# Where a SMILES comes first, the peptide text is derived from it. The star is where a group is joined. Cbz = O=C(OCc1ccccc1)*
# Key:
# [1] = test system: mitochondria in adipose tissue cells; experiment: mitochondria in adipose tissue of mice given LS-102 (electron micrographs); format: in vivo, C57BL/6J mice; conditions: 50 mg/kg body weight per day intraperitoneally, fifty seventh day, vs DMSO, FIG. 18
# Procedure: 50 mg/kg body weight of LS-102 per day or solvent (DMSO) as a control was administered intraperitoneally to 7 to 8-week-old C57BL/6J mice to observe adipose tissue slices of the mice of fifty seventh day after the administration using a microscope. […] Magnifications of the electron microscope were 2,500 folds and 10,000 folds and the white bars indicate scale bars (2 μm in the 2,500 folds and 500 nm in the 10,000 folds).
# [2] = molecular target: T1, binding between synoviolin and PGC-1β (Homo sapiens, UniProt Q86TM6, E545G); experiment: in vitro binding assay between synoviolin and PGC-1β (Western blot)
# T1 construct: GST fusion synoviolin which lack transmembrane domain (GST syno ΔTM); made in house
# Procedure: In order to investigate an influence on PGC-1β functions by inhibitor of E3 ubiquitin ligase activity of synoviolin, an effect on inhibition of binding between the synoviolin and the PGC-1β was firstly investigated. Specifically, in a usual binding assay using MBP-PGC-1β-His protein and GST-Syno ΔTM protein, LS-102 (PARMACOPIEA, Corporation) was added and these proteins were incubated for 12 hours. Then, these proteins were separated by SDS-PAGE of 12% gel concentration, and Western blot was performed. Anti-GST antibody diluted 2500 folds were used as a primary antibody, and anti-rat HRP diluted 10000 folds was used as a secondary antibody.
# In order to obtain a substance which inhibits the binding between synoviolin and PGC-1β, with respect to the substances shown in the following table 2 included in screening library relating to E3 ubiquitin ligase, in order to examine influence on the binding between synoviolin and PGC-1β, in vitro binding assays similar to the examples 3 to 6 were performed. The results were shown in FIGS. 11-1, 11-2, 11-3, and 11-4. In this example, 2 μg of PGC-1β (see FIG. 4) and 2 μg of GST-Syno ΔTM (see FIG. 6) were used.
# The binding assay was performed using the following assay system. 2 μg of MBP-PGC-1β His (1-367aa) and 2 μg of the modified synoviolin fused to GST were bound for 12 hours in a buffer (20 mM Tris-HCl pH 8.0, 100 mM NaCl, 1 mM EDTA. 0.1% NP-40, 5% glucose 1, and protease inhibitors) to detect PGC-1β using anti-PGC-1β antibody.
# PGC-1β [3] = experiment: PGC-1β protein and mRNA level in treated HEK 293 cells; format: cell-based
# Procedure: Firstly, synoviolin knock down was performed by siRNA in HEK 293 cells. Synoviolin siRNA was prepared in accordance with already reported article (see, Yamasaki, S., et al. (2007). Cytoplasmic destruction of p53 by the endoplasmic reticulum-resident ubiquitin ligase ‘Synoviolin’. EMBO J 26, 113-122.). Transfection of siRNA into cells was performed in accordance with a protocol with Lipofectamine 2000 (Invitrogen, Corporation).
# When a protein level of the PGC-1β was investigated as a confirmation, the protein level of the PGC-1β was doubled in LS-102 treated cells. On the other hand, the expression of PGC-1β mRNA was not changed by the LS-102 treatment.
# PGC-1β [4] = experiment: PGC-1β protein and mRNA level in skin fibroblasts from syno cKO mice (Western blot, real-time PCR); format: cell-based, mouse
# Procedure: Skin fibroblasts from syno CKO mice were cultivated in DMEM medium and treated by tamoxifen (Tam) or solvent (DMSO) for 48 hours. Cell extracts or total RNA were collected, each was used for western blot and real-time PCR, respectively.
# Further, in order to investigate whether […] was involved in synoviolin-mediated degradation of PGC-1β in cells, after the treatment by tamoxifen or solvent in the above experiment, 10 μM of MG-132, which is a proteasome inhibitor, was added and treated for two hours, and then, similar experiment was performed.
# [5] = test system: PPRE ×3-TK-luc reporter (PGC-1β coactivator function); experiment: Luciferase assay with PPRE ×3-TK-luc reporter in HEK-293 cells; format: cell-based
# Procedure: Specifically, control siRNA or Syno siRNA was temporarily transfected in HEK-293 cells. Reporter plasmid containing PPAR binding sites (PPRE ×3-TK-luc), CMV-β-gal expression construct, or siRNA was temporarily transfected in HEK-293 cells. After 16 hours, DMSO or Wy-14643 was treated for 6 hours, and then Luciferase assay was performed (FIG. 9B).
# After 16 hours from the transfection, cells were treated with solvent (DMSO) or Wy-14643 for 6 hours and the Luciferase assay was performed.
# The luciferase assay was performed similar to the example 9 except for using 5 μM of LS-102, 0.1 μM and 0.5 μM of 348, 0.1 μM and 5 μM of 349, and 5 μM of 351 and 355 instead of transfecting the Syno siRNA in the example 9. The same volume of DMSO, which is a solvent of each compound, was added as a control.
# [6] = molecular target: T2, PGC-1β ubiquitination by synoviolin (SYVN1) (Homo sapiens, UniProt Q86TM6); experiment: in vitro ubiquitination of PGC-1β by synoviolin (Western blot); format: biochemical; conditions: for inhibiting activity of the PGC-1β ubiquitination, concentration dependency: 1 μM and 10 μM, FIG. 21; for polyubiquitination of PGC-1β: compared to control group (DMSO), FIG. 11-4
# T2 construct: MBP-Syno ΔTM-His means synoviolin in which transmembrane domain has been deleted; His tag (C)
# Procedure: The ubiquitin assay was performed using the following assay system. E1-His 125 ng, UbcH5C 150 ng, MBP-SYVN1 ΔTM-His 150 ng, GST-PGC-1β (1-367 aa; GST-P5), and HA-ubiquitin (HA-Ub) 750 ng were reacted at 30° C. for 2 hours in a buffer (50 mM Tris-HCL pH 7.5, 5 mM MgCl2, 0.6 mM DTT, and 2 mM ATP) to be ubiquitinated. Thereafter, the ubiquitinated proteins were bound to Glutathione Sepharose in GST washing buffer (50 mM Tris-HCl pH 7.5, 0.5 M NaCl, 1% Triton X, 1 mM EDTA, 1 mM DTT, and protease inhibitors). After washing with the GST washing buffer, ubiquitination of PGC-1β was detected by Western blotting using anti-PGC-1β antibody and anti-HA antibody.
# In order to examine the concentration dependency of the inhibiting activity of test substances 348 and 349 in PGC-1β ubiquitination by synoviolin (SYVN1), the in vitro binding assay was performed in the same manner as described in Example 11.
# [7] = test system: mitochondria in HEK-293 cells; experiment: electron microscope observation of mitochondria in treated cells; format: cell-based; conditions: 1 μM, observed after 72 hours, FIG. 13
# Procedure: The observation of mitochondria was performed similar to the example 9 except for observing after 72 hours from adding 1 μM of 348, 349, 351 and 355 to cells instead of transfecting the Syno siRNA in the example 9.
# synoviolin protein = molecular target: T3, synoviolin protein (Homo sapiens, UniProt Q86TM6); conditions: disclosed in JP 2008-74753 A; cited from earlier work
# T3 construct: MBP-Syno ΔTM-His means synoviolin in which transmembrane domain has been deleted; His tag (C)
# [8] = 2 μg PGC-1β and 2 μg GST-Syno ΔTM, FIGS. 11-1 to 11-4
# T1 sequence (Q86TM6 236-617 E545G): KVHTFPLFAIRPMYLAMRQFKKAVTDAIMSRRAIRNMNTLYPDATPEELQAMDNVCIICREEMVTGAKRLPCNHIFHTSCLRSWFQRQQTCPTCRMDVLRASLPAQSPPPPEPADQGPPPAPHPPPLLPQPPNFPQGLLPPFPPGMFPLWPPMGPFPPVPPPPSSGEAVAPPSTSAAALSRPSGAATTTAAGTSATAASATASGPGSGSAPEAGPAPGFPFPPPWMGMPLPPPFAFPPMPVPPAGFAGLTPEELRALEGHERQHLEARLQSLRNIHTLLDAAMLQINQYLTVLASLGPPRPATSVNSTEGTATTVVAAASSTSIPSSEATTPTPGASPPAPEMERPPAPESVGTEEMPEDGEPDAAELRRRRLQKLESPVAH
# T2 sequence (Q86TM6 246-617 limits assumed): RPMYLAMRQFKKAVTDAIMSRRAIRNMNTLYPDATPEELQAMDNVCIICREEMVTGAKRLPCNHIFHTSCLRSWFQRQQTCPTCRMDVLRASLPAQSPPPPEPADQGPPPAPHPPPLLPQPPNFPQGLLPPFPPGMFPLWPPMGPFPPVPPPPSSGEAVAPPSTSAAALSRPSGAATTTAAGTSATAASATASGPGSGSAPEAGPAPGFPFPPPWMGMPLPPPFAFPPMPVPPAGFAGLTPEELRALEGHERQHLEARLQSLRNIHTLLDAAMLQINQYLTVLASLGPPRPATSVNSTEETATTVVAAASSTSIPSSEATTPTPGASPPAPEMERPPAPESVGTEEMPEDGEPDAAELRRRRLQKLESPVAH
# T3 sequence (Q86TM6 246-617 limits assumed): as above
smiles,measurement,setting,value
CCNCCN(CC)c1nc(Nc2ccc3ncoc3c2)nc(N[C@@H](C)C2CCCCC2)n1 [LS-102],number and volume density of mitochondria in the adipose tissue cells,[1],increases in number and volume density of mitochondria
same,binding between synoviolin and PGC-1β,"[2]; MBP-PGC-1β-His and GST-Syno ΔTM, incubated 12 hours, FIG. 10",has an effect on inhibition of binding
same,protein level of the PGC-1β,PGC-1β [3]; LS-102 treated cells,doubled
same,expression of PGC-1β mRNA,PGC-1β [3]; LS-102 treatment,not changed
CC(C)C[C@@H](C=O)NC(=O)[C@H](CC(C)C)NC(=O)[C@H](CC(C)C)NC(=O)OCc1ccccc1 [MG-132] (Cbz-Leu-Leu-Leu-aldehyde),protein level of PGC-1β,"PGC-1β [4]; 10 μM MG-132 for two hours, solvent-treated (DMSO-treated) skin fibroblasts",1.6 folds
same,"protein level of PGC-1β, additive effect of tamoxifen treatment and MG-132","PGC-1β [4]; 10 μM MG-132 for two hours, tamoxifen-treated skin fibroblasts",1.1 folds
CC/C(=C(\c1ccccc1)c1ccc(OCCN(C)C)cc1)c1ccccc1 [Tam],protein level of PGC-1β,"PGC-1β [4]; Tam treatment 48 hours (induces synoviolin knockout) vs DMSO, skin fibroblasts of syno cKO mice",1.4 folds
same,mRNA level of PGC-1β,"PGC-1β [4]; Tam treatment 48 hours, skin fibroblasts of syno cKO mice",no change
"Cc1cccc(Nc2cc(Cl)nc(SCC(=O)O)n2)c1C [Wy-1463, reference compound]",PPRE ×3-TK-luc reporter activity,"[5]; PPARα agonist treated for 6 hours vs DMSO, FIG. 9B",induced
O=C1C=CC(=O)c2c(O)ccc(O)c21 [compound 348],binding between synoviolin and PGC-1β,[2]; [8],inhibition of the binding
same,"inhibiting activity of the PGC-1β ubiquitination, concentration dependency",[6],in 10 μM is higher than that in 1 μM
same,polyubiquitination of PGC-1β,[6],suppressed
same,number and size of mitochondria,[7],proliferation (increase in the number) of mitochondria or increase in size of mitochondria has been observed
O=C1C=CC(=O)c2c(O)cccc21 [compound 349],binding between synoviolin and PGC-1β,[2]; [8],inhibition of the binding
same,"inhibiting activity of the PGC-1β ubiquitination, concentration dependency",[6],in 10 μM is higher than that in 1 μM
same,polyubiquitination of PGC-1β,[6],suppressed
same,number and size of mitochondria,[7],proliferation (increase in the number) of mitochondria or increase in size of mitochondria has been observed
CC1=CC(=O)c2ccccc2C1=O [compound 351],binding between synoviolin and PGC-1β,[2]; [8],enhances the binding
same,luciferase activity,"[5]; compounds instead of Syno siRNA (351: 5 μM), DMSO control, FIG. 12",lowered
O=C1CCC(=O)c2c(O)cccc21 [compound 355],binding between synoviolin and PGC-1β,[2]; [8],inhibition of the binding
same,number and size of mitochondria,[7],proliferation (increase in the number) of mitochondria or increase in size of mitochondria has been observed
O=C1C=CC(=O)c2c(Cl)ccc(O)c21 [compound 358],binding between synoviolin and PGC-1β,[2]; [8],inhibition of the binding
"CC1=CC(=O)c2c(O)cccc2C1=O [plumbagin, 2-methyl-5-hydroxy-1,4-naphthoquinone]",self-ubiquitination of synoviolin protein,synoviolin protein,inhibit self-ubiquitination of synoviolin protein
"O=c1c(O)c(-c2ccc(O)c(O)c2)oc2cc(O)cc(O)c12 [quercetin, 2-(3,4-dihydroxyphenyl)-3,5,7-trihydroxy-4H-1-benzopyrano-4-on, reference compound]",binding between synoviolin and PGC-1β,[2]; [8],inhibition of the binding
same,self-ubiquitination of synoviolin protein,synoviolin protein,inhibit self-ubiquitination of synoviolin protein
